# Earlier results as cited in patent US11884694B2, “Non-caloric sweeteners and methods for synthesizing” (Conagen Inc., priority 2014, dated 2024).
# Settings: sweetness compared with sucrose
row,Structure (SMILES),times sweeter than sucrose
1,C=C1C[C@@]23CC[C@H]4[C@@](C)(CCC[C@@]4(C)C(=O)O[C@@H]4O[C@H](CO)[C@@H](O)[C@H](O)[C@H]4O)[C@@H]2CC[C@]1(O[C@@H]1O[C@H](CO)[C@@H](O)[C@H](O)[C@H]1O[C@@H]1O[C@@H](C)[C@H](O)[C@@H](O)[C@H]1O)C3 [Dulcoside A],about 30 times
2,C=C1C[C@@]23CC[C@H]4[C@@](C)(CCC[C@@]4(C)C(=O)O[C@@H]4O[C@H](CO)[C@@H](O)[C@H](O)[C@H]4O)[C@@H]2CC[C@]1(O[C@@H]1O[C@H](CO)[C@@H](O)[C@H](O[C@@H]2O[C@H](CO)[C@@H](O)[C@H](O)[C@H]2O)[C@H]1O[C@@H]1O[C@@H](C)[C@H](O)[C@@H](O)[C@H]1O)C3 [Rebaudioside C],40-60 times
3,"C=C1C[C@@]23CC[C@H]4[C@@](C)(CCC[C@@]4(C)C(=O)O[C@@H]4O[C@H](CO)[C@@H](O)[C@H](O)[C@H]4O)[C@@H]2CC[C@]1(O[C@@H]1O[C@H](CO)[C@@H](O)[C@H](O)[C@H]1O[C@@H]1O[C@H](CO)[C@@H](O)[C@H](O)[C@H]1O)C3 [stevioside, Stevioside]",100-150 times
